The source of these data is US20140024638A1, “TREATMENT OF COGNITIVE DYSFUNCTION IN SCHIZOPHRENIA” (TARGACEPT, INC., priority 2011, published 2014).

Structures are written as SMILES.

Data set [1] is described as follows: hygroscopicity (salt screening). Type of data set: physicochemical.
Data set [2] in a line: water solubility (salt screening). The data set is classed as physicochemical.

Take `Cc1ccc(S(=O)(=O)O)cc1.O=C(N[C@@H]1C2CCN(CC2)[C@H]1Cc1cccnc1)c1cc2ccccc2o1` [p-toluenesulfonic acid salt, (2S,3R)—N-(2-((3-pyridinyl)methyl)-1-azabicyclo[2.2.2]oct-3-yl)benzofuran-2-carboxamide p-toluenesulfonate]: the hygroscopicity entry in data set [1] is “low”. For the same compound, the water solubility entry in data set [2] is listed as “good”.

For `O=C(N[C@@H]1C2CCN(CC2)[C@H]1Cc1cccnc1)c1cc2ccccc2o1.O=P(O)(O)O` [phosphoric acid salt], the hygroscopicity result in data set [1] is given as “low”.
